Reference: the kinase profiling compilation of Christmann-Franck et al. (2016)

Each compound was assayed against FGFR1 (human) (UniProt P11362) (assay: radiometric filter-binding kinase assay, Kinase HotSpot). Settings: compound 0.5 µM; ATP 10 µM.
Chain of FGFR1 (human) (P11362 whole entry, looked up): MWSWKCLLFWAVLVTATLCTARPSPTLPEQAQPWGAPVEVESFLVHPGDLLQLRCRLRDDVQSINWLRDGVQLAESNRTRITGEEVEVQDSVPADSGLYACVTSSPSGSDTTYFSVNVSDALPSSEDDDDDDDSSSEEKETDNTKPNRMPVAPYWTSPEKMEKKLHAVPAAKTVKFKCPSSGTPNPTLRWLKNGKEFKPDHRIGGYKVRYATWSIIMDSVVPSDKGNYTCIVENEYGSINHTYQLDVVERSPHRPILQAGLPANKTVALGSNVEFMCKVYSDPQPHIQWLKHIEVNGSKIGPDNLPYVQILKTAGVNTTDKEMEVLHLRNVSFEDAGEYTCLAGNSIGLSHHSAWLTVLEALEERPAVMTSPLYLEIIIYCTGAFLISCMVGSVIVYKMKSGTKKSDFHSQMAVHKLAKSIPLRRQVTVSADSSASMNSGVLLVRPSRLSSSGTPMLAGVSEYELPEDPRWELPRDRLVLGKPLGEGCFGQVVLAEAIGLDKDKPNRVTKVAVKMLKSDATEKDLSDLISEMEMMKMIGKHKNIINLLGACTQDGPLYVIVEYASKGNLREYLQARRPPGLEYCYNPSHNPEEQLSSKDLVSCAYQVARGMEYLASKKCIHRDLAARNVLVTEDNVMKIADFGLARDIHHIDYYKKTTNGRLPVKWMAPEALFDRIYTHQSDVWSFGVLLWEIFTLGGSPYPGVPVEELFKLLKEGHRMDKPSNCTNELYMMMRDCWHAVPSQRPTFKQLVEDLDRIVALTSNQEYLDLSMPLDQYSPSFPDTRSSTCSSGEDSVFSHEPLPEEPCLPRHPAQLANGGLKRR

SMILES	residual activity [%]
N#C/C(=C1/Nc2ccccc2S1)c1ccnc(NCCc2cccnc2)n1	99
O=C1NC(=O)c2c1c1c3ccccc3[nH]c1c1[nH]c3cc(Br)ccc3c21	85.3
O=c1[nH]c2ccccc2n1C1CCN(Cc2ccc(-c3nc4cc5[nH]cnc5cc4nc3-c3ccccc3)cc2)CC1	102

Each compound was assayed against CDK1 CCNA2 (human) (UniProt P06493+P20248) in the same assay as above. Settings: compound 0.5 µM.

SMILES	residual activity [%]
O=c1[nH]c2ccccc2n1C1CCN(Cc2ccc(-c3nc4cc5[nH]cnc5cc4nc3-c3ccccc3)cc2)CC1	102

Same assay, conditions: compound 0.5 µM; ATP 10 µM

SMILES	residual activity [%]
COc1cc2c(N3CCN(C(=O)Nc4ccc(OC(C)C)cc4)CC3)ncnc2cc1OCCCN1CCCCC1	96
N#C/C(=C1/Nc2ccccc2S1)c1ccnc(NCCc2cccnc2)n1	83
O=C1NC(=O)c2c1c1c3ccccc3[nH]c1c1[nH]c3cc(Br)ccc3c21	91.9

The compounds below were run against PTK2B (human) (UniProt Q14289) in the same assay as above. Settings: compound 0.5 µM; ATP 10 µM.
Chain of PTK2B (human) (Q14289 whole entry, looked up): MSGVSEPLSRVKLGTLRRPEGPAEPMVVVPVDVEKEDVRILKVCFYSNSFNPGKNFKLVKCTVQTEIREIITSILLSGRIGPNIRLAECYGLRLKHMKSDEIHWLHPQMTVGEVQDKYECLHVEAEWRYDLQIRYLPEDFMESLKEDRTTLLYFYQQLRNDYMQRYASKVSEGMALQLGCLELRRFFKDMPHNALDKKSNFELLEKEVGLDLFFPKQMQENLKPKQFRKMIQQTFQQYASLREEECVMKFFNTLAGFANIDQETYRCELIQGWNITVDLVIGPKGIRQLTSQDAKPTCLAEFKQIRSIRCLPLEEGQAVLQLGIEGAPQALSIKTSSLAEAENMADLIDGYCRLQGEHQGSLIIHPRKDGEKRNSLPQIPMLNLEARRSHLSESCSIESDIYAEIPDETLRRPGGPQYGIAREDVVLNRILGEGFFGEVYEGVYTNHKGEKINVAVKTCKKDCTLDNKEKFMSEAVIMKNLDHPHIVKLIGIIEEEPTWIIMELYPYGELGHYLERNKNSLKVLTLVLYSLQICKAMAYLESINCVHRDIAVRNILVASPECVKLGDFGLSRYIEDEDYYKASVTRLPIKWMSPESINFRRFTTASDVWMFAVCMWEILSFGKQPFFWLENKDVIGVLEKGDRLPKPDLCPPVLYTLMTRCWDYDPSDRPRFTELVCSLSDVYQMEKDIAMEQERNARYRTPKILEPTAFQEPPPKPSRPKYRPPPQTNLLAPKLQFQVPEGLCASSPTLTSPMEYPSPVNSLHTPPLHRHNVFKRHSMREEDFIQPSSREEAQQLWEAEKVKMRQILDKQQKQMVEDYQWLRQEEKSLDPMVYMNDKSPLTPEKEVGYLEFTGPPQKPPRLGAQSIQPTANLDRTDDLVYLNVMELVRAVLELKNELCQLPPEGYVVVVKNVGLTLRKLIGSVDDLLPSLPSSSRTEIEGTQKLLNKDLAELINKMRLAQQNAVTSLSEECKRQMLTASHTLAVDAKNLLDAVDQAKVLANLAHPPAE

SMILES	residual activity [%]
COc1cc2c(N3CCN(C(=O)Nc4ccc(OC(C)C)cc4)CC3)ncnc2cc1OCCCN1CCCCC1	99.3
N#C/C(=C1/Nc2ccccc2S1)c1ccnc(NCCc2cccnc2)n1	98.7
O=C1NC(=O)c2c1c1c3ccccc3[nH]c1c1[nH]c3cc(Br)ccc3c21	79.5
O=c1[nH]c2ccccc2n1C1CCN(Cc2ccc(-c3nc4cc5[nH]cnc5cc4nc3-c3ccccc3)cc2)CC1	105

These compounds were tested against CDK6 CCND1 (human) (UniProt Q00534+P24385) in the same assay as above. Settings: compound 0.5 µM.
Chain of CDK6 CCND1 (human) (P24385 whole entry, looked up): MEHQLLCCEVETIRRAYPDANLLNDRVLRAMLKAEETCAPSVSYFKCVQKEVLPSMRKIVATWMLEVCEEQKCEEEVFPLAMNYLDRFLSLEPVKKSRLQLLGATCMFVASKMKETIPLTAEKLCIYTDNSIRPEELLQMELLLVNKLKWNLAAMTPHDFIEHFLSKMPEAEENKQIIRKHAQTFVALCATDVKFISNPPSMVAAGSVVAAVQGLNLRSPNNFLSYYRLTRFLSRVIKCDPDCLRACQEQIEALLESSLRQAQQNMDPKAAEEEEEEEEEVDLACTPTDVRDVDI
Chain of CDK6 CCND1 (human) (Q00534 whole entry, looked up): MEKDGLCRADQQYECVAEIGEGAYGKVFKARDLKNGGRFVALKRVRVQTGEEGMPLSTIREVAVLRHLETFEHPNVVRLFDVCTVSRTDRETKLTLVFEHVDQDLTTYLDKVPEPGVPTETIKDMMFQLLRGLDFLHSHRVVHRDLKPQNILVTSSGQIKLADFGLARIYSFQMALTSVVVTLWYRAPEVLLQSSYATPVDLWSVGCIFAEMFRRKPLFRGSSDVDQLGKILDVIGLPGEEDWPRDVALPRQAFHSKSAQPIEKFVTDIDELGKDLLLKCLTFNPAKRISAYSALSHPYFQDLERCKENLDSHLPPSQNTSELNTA

SMILES	residual activity [%]
O=c1[nH]c2ccccc2n1C1CCN(Cc2ccc(-c3nc4cc5[nH]cnc5cc4nc3-c3ccccc3)cc2)CC1	105

Same assay, conditions: compound 0.5 µM; ATP 10 µM

SMILES	residual activity [%]
COc1cc2c(N3CCN(C(=O)Nc4ccc(OC(C)C)cc4)CC3)ncnc2cc1OCCCN1CCCCC1	94.6
N#C/C(=C1/Nc2ccccc2S1)c1ccnc(NCCc2cccnc2)n1	89.7
O=C1NC(=O)c2c1c1c3ccccc3[nH]c1c1[nH]c3cc(Br)ccc3c21	12.2

What follows are compounds tested against NEK2 (human) (UniProt P51955) in the same assay as above. Settings: compound 0.5 µM; ATP 10 µM.
Chain of NEK2 (human) (P51955 whole entry, looked up): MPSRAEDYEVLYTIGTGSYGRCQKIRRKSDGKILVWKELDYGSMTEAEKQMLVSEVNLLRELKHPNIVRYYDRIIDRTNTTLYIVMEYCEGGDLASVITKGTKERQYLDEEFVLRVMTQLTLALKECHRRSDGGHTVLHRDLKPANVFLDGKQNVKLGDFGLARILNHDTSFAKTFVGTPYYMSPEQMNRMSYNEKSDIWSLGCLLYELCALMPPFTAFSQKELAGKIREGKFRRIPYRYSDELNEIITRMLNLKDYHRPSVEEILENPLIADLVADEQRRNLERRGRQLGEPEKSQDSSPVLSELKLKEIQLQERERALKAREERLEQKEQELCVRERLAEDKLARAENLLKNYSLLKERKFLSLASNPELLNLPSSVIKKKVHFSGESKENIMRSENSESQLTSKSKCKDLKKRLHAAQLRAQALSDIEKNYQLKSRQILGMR

SMILES	residual activity [%]
COc1cc2c(N3CCN(C(=O)Nc4ccc(OC(C)C)cc4)CC3)ncnc2cc1OCCCN1CCCCC1	101
N#C/C(=C1/Nc2ccccc2S1)c1ccnc(NCCc2cccnc2)n1	87.8
O=C1NC(=O)c2c1c1c3ccccc3[nH]c1c1[nH]c3cc(Br)ccc3c21	92
O=c1[nH]c2ccccc2n1C1CCN(Cc2ccc(-c3nc4cc5[nH]cnc5cc4nc3-c3ccccc3)cc2)CC1	96.8

These compounds were tested against STK3 (human) (UniProt Q13188) in the same assay as above. Settings: compound 0.5 µM; ATP 10 µM.
Chain of STK3 (human) (Q13188 whole entry, looked up): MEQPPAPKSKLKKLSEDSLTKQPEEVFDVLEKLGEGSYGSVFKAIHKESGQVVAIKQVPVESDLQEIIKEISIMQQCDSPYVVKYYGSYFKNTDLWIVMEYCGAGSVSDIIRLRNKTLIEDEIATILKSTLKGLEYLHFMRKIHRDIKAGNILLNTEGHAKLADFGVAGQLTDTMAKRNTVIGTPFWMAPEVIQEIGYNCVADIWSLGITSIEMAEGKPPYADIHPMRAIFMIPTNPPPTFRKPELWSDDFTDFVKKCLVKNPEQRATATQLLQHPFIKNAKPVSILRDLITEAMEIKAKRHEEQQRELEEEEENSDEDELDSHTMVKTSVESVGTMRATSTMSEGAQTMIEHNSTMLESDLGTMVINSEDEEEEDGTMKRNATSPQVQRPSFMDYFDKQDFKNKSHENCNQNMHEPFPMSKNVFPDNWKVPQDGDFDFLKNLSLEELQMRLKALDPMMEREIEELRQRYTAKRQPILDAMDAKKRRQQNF

SMILES	residual activity [%]
COc1cc2c(N3CCN(C(=O)Nc4ccc(OC(C)C)cc4)CC3)ncnc2cc1OCCCN1CCCCC1	94.7
N#C/C(=C1/Nc2ccccc2S1)c1ccnc(NCCc2cccnc2)n1	98.9
O=C1NC(=O)c2c1c1c3ccccc3[nH]c1c1[nH]c3cc(Br)ccc3c21	55.8
O=c1[nH]c2ccccc2n1C1CCN(Cc2ccc(-c3nc4cc5[nH]cnc5cc4nc3-c3ccccc3)cc2)CC1	103

These compounds were tested against CDK9 CCNK (human) (UniProt O75909+P50750) in the same assay as above. Settings: compound 0.5 µM.

SMILES	residual activity [%]
O=c1[nH]c2ccccc2n1C1CCN(Cc2ccc(-c3nc4cc5[nH]cnc5cc4nc3-c3ccccc3)cc2)CC1	108

Same assay, conditions: compound 0.5 µM; ATP 10 µM

SMILES	residual activity [%]
COc1cc2c(N3CCN(C(=O)Nc4ccc(OC(C)C)cc4)CC3)ncnc2cc1OCCCN1CCCCC1	107
N#C/C(=C1/Nc2ccccc2S1)c1ccnc(NCCc2cccnc2)n1	26.6
O=C1NC(=O)c2c1c1c3ccccc3[nH]c1c1[nH]c3cc(Br)ccc3c21	82.7

Each compound was assayed against AKT1 (human) (UniProt P31749) in the same assay as above. Settings: compound 0.5 µM; ATP 10 µM.
Chain of AKT1 (human) (P31749 whole entry, looked up): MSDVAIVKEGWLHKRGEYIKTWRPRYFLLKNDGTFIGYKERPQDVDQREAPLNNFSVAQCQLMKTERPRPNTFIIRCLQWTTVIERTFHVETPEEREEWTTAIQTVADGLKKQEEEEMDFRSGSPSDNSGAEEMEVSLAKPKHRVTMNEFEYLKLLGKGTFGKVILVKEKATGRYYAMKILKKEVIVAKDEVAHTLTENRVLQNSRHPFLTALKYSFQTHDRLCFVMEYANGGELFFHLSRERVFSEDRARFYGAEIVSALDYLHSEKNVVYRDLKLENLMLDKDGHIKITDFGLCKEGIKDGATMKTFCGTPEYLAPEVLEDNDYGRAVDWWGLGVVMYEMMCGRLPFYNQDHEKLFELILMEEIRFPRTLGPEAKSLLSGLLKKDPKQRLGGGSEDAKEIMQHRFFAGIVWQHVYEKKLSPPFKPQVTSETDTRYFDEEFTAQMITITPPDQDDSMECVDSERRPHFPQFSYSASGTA

SMILES	residual activity [%]
COc1cc2c(N3CCN(C(=O)Nc4ccc(OC(C)C)cc4)CC3)ncnc2cc1OCCCN1CCCCC1	102
N#C/C(=C1/Nc2ccccc2S1)c1ccnc(NCCc2cccnc2)n1	104
O=C1NC(=O)c2c1c1c3ccccc3[nH]c1c1[nH]c3cc(Br)ccc3c21	101
O=c1[nH]c2ccccc2n1C1CCN(Cc2ccc(-c3nc4cc5[nH]cnc5cc4nc3-c3ccccc3)cc2)CC1	114

The compounds below were run against STK33 (human) (UniProt Q9BYT3) in the same assay as above. Settings: compound 0.5 µM; ATP 10 µM.
Chain of STK33 (human) (Q9BYT3 whole entry, looked up): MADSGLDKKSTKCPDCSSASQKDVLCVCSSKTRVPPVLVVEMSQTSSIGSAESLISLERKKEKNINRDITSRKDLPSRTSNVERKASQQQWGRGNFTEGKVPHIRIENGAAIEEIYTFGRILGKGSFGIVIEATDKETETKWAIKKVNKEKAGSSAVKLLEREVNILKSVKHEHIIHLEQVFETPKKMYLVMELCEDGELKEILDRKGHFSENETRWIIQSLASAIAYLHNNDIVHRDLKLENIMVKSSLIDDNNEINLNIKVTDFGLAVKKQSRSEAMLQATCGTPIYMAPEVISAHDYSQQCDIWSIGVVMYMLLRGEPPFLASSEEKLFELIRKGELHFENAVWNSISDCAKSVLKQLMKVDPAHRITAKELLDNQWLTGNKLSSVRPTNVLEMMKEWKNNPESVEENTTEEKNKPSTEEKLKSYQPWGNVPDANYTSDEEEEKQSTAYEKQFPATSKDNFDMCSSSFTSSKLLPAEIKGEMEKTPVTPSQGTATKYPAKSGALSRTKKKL

SMILES	residual activity [%]
COc1cc2c(N3CCN(C(=O)Nc4ccc(OC(C)C)cc4)CC3)ncnc2cc1OCCCN1CCCCC1	91.1
N#C/C(=C1/Nc2ccccc2S1)c1ccnc(NCCc2cccnc2)n1	55.4
O=C1NC(=O)c2c1c1c3ccccc3[nH]c1c1[nH]c3cc(Br)ccc3c21	71.9
O=c1[nH]c2ccccc2n1C1CCN(Cc2ccc(-c3nc4cc5[nH]cnc5cc4nc3-c3ccccc3)cc2)CC1	89.6

Each compound was assayed against CAMKK1 (human) (UniProt Q8N5S9) in the same assay as above. Settings: compound 0.5 µM; ATP 10 µM.
Chain of CAMKK1 (human) (Q8N5S9 whole entry, looked up): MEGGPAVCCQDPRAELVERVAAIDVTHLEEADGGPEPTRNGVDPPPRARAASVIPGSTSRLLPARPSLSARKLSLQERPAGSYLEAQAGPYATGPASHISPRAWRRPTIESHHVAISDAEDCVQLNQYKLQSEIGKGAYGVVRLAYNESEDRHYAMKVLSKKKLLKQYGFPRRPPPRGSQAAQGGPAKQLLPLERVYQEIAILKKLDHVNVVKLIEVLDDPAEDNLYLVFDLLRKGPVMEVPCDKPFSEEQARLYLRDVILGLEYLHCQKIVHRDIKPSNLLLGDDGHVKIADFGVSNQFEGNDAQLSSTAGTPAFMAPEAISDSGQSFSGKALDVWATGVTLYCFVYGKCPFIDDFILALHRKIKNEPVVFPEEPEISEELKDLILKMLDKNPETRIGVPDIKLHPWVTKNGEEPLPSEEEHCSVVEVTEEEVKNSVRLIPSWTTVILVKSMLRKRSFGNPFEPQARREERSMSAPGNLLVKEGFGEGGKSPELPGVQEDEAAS

SMILES	residual activity [%]
COc1cc2c(N3CCN(C(=O)Nc4ccc(OC(C)C)cc4)CC3)ncnc2cc1OCCCN1CCCCC1	90.3
N#C/C(=C1/Nc2ccccc2S1)c1ccnc(NCCc2cccnc2)n1	101
O=C1NC(=O)c2c1c1c3ccccc3[nH]c1c1[nH]c3cc(Br)ccc3c21	99.1
O=c1[nH]c2ccccc2n1C1CCN(Cc2ccc(-c3nc4cc5[nH]cnc5cc4nc3-c3ccccc3)cc2)CC1	117

The compounds below were run against HIPK4 (human) (UniProt Q8NE63) in the same assay as above. Settings: compound 0.5 µM; ATP 10 µM.

SMILES	residual activity [%]
COc1cc2c(N3CCN(C(=O)Nc4ccc(OC(C)C)cc4)CC3)ncnc2cc1OCCCN1CCCCC1	99.5
N#C/C(=C1/Nc2ccccc2S1)c1ccnc(NCCc2cccnc2)n1	97.6
